Measured values: paper PMC3221505, “Simple, Rapid and Validated LC Determination of Lopinavir in Rat Plasma and its Application in Pharmacokinetic Studies” (Scientia Pharmaceutica, 2011)

Key:
[1] = Freeze-thaw stability of LPV in rat plasma; type: in vitro ADME, Wistar rat; conditions: rat plasma QC samples, end of three freeze-thaw cycles, frozen at −20 °C
Description: Total of four sets were prepared in triplicates and one set of the prepared concentrations was analyzed on the day of preparation (no freeze-thaw cycle) and the remaining three sets were frozen at −20 °C for 24 h. Frozen samples were thawed by keeping the sealed tubes at room temperature for at least 1 h. One set in triplicate was analyzed and the remaining two sets were kept at −20 °C for freezing and were analyzed after two and three freeze-thaw cycles.

[2] = Pharmacokinetic study after intravenous bolus administration of LPV in rats; type: in vivo; conditions: male Wistar rats, 5 mg kg^−1, n = 6, plasma
Description: Formulation was administered through tail vein in male Wistar rats (n = 6), weighing 180 to 220 g, at a dose of 5 mg kg^−1 [35]. Blood samples were drawn from retro-orbital plexus of Wistar rats at 0.083, 0.167, 0.25, 0.5, 1, 2, 3, 4, 6, 8, 12 and 24 h post dose in microfuge tube pretreated with sodium citrate solution (3.8% w/v). A baseline blank plasma sample was drawn from each animal before drug administration. All samples were processed according to the procedure described earlier and analyzed using the validated HPLC method.

[3] = Post extraction stability of processed samples of LPV in rat plasma; type: physicochemical, Wistar rat; conditions: processed rat plasma QC samples kept in auto sampler rack, 24 h
Description: Processed samples were kept in the sample rack of auto sampler and samples were analyzed in triplicates every 6 h for 24 h period on the day of preparation. The percentage deviation from the mean concentrations observed at zero time was calculated.

For `Cc1cccc(C)c1OCC(=O)N[C@@H](Cc1ccccc1)[C@@H](O)C[C@H](Cc1ccccc1)NC(=O)[C@H](C(C)C)N1CCCNC1=O` [LPV, (2S)-N-[(1S,3S,4S)-1-benzyl-4-{[(2,6-dimethyl-phenoxy)acetyl]amino}-3-hydroxy-5-phenylpentyl]-3-methyl-2-(2-oxotetrahydropyrimidin-1(2H)-yl)butanamide], the “deviation from the zero time concentration (freeze-thaw stability)” value [1] was “less than 8.0%”, the “area under the first-moment curve (AUMC)” value [2] was 4403.07 ± 171.33 h^2 ng mL^−1 and the AUC ([2]; rat, read-out: area under the curve (AUC)) was 3850 ± 264 ng·h/mL. For the same compound, the C0 ([2]; rat, read-out: concentration at time zero (Co)) was 3170 ± 290 ng/mL, the half-life ([2]; rat, read-out: elimination half-life (t½) (converted)) was 49.2 ± 1.8 min and the MRT ([2]; rat, read-out: mean retention time (MRT)) was 69 ± 3 min. The clearance ([2]; rat, read-out: total plasma clearance (CLs) (converted)) was 22.4 mL/min/kg, the Vd ([2]; rat, read-out: volume of distribution (Vss)) was 1.59 ± 0.146 L/kg and the “maximum deviation from the zero time concentration (post extraction stability)” value [3] was “less than 2.0%”.
